According to publication PMC4858680, “A platinum-based hybrid drug design approach to circumvent acquired resistance to molecular targeted tyrosine kinase inhibitors” (Scientific Reports, 2016):

Columns and labels:
EPHB4 = target: T1, EPHB4 (Homo sapiens, UniProt P54760); experiment: biochemical; conditions: read-out: Percent control
T1 sequence (P54760 16-987): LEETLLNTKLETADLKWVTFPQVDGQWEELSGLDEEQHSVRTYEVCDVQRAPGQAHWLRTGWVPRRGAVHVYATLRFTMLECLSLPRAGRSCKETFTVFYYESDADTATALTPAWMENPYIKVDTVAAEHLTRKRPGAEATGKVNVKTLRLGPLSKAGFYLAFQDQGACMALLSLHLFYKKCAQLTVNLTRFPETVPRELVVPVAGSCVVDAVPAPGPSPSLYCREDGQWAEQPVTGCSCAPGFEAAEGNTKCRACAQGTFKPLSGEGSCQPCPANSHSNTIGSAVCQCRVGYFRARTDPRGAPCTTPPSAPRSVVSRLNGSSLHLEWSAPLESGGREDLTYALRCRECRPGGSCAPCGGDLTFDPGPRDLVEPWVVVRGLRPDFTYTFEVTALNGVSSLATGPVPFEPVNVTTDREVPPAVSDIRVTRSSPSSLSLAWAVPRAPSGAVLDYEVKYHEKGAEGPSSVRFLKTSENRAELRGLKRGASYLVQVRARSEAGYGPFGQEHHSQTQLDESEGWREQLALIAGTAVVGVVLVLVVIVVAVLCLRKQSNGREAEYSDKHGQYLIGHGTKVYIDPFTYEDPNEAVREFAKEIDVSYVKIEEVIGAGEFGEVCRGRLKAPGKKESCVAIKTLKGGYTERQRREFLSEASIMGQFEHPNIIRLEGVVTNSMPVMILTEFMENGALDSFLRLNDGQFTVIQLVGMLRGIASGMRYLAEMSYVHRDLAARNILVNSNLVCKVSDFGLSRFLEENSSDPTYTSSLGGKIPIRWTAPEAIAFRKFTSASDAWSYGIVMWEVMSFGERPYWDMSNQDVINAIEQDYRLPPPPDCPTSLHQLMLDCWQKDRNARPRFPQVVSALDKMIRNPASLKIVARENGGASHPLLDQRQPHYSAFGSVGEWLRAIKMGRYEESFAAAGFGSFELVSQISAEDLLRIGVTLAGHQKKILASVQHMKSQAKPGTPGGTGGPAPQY

FLT3 = target: T2, FLT3 (Homo sapiens, UniProt P36888); experiment: biochemical; conditions: read-out: Percent control
T2 sequence (P36888 27-993): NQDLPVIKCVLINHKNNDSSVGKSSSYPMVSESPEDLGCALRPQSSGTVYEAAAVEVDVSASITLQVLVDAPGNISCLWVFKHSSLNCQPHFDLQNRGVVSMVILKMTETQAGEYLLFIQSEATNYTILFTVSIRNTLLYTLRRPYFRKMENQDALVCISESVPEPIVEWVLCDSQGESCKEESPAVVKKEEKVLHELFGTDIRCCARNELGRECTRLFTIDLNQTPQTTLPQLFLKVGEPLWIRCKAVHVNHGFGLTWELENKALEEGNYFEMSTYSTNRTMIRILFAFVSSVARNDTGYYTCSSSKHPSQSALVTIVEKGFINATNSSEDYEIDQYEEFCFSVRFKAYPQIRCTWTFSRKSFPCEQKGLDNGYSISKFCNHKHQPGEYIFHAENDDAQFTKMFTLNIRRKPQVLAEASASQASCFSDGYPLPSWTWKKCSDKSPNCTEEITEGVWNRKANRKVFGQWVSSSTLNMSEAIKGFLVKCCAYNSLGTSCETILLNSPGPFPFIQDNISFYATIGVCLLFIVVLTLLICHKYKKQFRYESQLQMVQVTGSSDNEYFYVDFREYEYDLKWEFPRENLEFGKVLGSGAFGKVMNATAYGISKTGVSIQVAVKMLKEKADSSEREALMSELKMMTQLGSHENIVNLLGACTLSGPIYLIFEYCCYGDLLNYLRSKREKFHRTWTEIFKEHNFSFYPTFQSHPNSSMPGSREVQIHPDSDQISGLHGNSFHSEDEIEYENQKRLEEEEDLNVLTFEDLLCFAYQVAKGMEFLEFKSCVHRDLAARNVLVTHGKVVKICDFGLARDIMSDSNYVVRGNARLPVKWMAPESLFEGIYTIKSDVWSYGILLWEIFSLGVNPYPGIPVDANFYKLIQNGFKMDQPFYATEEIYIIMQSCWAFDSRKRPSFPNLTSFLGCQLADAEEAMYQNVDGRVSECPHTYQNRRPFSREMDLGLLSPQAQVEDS

EPHA6 = target: T3, EPHA6 (Homo sapiens, UniProt Q9UF33); experiment: biochemical; conditions: read-out: Percent control
T3 sequence (Q9UF33 23-1036): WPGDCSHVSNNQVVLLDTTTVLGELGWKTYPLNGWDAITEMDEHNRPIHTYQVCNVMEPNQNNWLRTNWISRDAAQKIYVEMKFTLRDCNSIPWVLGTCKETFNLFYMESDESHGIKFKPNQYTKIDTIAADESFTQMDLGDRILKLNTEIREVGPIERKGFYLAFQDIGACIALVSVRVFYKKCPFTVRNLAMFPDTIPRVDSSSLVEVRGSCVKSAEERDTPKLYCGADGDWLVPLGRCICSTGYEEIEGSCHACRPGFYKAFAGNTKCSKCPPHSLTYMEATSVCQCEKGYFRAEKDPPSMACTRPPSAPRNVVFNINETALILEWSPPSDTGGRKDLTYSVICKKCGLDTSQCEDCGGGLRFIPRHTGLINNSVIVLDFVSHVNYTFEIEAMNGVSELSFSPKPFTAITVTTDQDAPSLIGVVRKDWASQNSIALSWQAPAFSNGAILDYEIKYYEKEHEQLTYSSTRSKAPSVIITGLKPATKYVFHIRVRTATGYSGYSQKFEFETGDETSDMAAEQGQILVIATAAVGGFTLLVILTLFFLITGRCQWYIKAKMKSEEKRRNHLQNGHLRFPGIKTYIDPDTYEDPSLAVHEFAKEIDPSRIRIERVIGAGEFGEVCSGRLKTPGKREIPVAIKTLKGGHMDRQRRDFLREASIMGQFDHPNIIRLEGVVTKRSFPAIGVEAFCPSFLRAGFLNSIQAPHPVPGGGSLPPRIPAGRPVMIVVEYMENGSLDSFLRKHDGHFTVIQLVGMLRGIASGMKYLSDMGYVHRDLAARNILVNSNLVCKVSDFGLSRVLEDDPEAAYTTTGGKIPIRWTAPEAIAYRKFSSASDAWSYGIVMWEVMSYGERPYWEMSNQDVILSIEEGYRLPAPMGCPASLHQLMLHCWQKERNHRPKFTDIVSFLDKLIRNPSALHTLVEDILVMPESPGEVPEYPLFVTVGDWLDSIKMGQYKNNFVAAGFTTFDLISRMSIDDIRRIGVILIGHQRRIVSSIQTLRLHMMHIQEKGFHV

H1975 = experiment: Anticancer activity (cytotoxicity) in NSCLC cell line; type: cell-based; conditions: Homo sapiens, NCI-H1975, read-out: Anticancer activity (IC50) H1975
MET = MET (Homo sapiens, UniProt P08581); experiment: biochemical; conditions: read-out: Percent control
MET, sequence (P08581 25-1390): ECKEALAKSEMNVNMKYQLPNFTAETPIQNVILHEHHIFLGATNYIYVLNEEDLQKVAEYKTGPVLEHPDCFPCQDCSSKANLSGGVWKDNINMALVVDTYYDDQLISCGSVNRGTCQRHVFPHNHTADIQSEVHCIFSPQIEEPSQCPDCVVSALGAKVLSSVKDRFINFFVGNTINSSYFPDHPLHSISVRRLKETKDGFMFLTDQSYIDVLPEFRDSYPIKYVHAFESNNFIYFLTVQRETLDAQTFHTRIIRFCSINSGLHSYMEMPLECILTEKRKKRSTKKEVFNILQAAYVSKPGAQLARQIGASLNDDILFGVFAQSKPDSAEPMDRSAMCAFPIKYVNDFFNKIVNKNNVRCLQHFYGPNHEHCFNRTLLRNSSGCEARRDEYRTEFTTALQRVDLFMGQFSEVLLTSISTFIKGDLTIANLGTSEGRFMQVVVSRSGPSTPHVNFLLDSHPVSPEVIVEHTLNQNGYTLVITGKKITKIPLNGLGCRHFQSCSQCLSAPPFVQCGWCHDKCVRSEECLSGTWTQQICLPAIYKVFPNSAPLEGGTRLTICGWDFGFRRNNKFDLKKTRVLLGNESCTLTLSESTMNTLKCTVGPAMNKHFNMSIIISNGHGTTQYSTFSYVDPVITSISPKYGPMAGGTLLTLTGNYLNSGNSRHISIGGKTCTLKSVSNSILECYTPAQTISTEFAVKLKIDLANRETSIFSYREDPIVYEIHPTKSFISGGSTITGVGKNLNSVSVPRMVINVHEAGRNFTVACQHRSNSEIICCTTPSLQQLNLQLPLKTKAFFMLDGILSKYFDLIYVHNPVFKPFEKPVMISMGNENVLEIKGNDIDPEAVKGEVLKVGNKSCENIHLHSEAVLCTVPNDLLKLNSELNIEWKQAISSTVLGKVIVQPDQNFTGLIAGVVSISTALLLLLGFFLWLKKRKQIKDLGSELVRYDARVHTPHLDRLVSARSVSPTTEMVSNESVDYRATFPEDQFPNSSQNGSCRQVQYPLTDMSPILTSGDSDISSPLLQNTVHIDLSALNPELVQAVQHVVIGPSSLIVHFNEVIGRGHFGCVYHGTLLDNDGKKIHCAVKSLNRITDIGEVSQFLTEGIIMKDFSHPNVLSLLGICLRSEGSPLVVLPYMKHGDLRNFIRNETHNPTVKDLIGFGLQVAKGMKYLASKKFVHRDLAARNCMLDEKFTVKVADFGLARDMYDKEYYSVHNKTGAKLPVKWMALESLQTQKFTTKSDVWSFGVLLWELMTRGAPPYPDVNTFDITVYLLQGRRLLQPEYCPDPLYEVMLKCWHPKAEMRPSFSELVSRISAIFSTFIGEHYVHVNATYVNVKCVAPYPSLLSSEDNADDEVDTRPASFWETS

Row | SMILES | remaining activity at 10 µM (EPHB4) [%] | remaining activity at 10 µM (FLT3) [%] | remaining activity at 10 µM (EPHA6) [%] | IC50 (H1975) [µM] | remaining activity at 10 µM (MET) [%]
1 | COc1cc2c(Nc3ccc(Br)cc3F)ncnc2cc1OCC1CCN(C)CC1 [Vandetanib, reference compound] | 4.9 | 7.8 | 0.5 | 13.8 ± 2.06 | 
2 | Cc1ccc(NC(=O)c2ccc(CN3CCN(C)CC3)cc2)cc1Nc1nccc(-c2cccnc2)n1 [Imatinib, reference compound] |  |  |  |  | 100
3 | C#Cc1cccc(Nc2ncnc3cc(OCCOC)c(OCCOC)cc23)c1 [Erlotinib] | 18 | 10.7 | 4.2 | 11.8 ± 3.19 | 27.5
